Measurements taken from patent US20090253709A1 (NATIONAL DEFENSE MEDICAL CENTER, priority 2008, published 2009).
Where two headings read alike, the source gives them in different places.

Experiments:
MTT assay in BJ1 cells = assay type: cell-based; details: human, hTERT-BJ1-PTERT(3.4)-SEAP cells, BJ1, read-out: MTT (Inhibition μM ± SD); for viability at 48 h, 1 µM: compound concentration 1 μM; for viability at 48 h, 10 µM: compound concentration 10 μM; for viability at 48 h, 100 µM: compound concentration 100 μM
Experimental: A total of 2×10^3 […] cells were seeded in the 96-well cell culture plate, and incubated with DMEM (GIBCO®)/glucose mixture and Medium 199 (GIBCO®)/10% FBS/1 mM sodium pyruvate (GIBCO®)/4 mM L-glutamine (GIBCO®) mixture at a ratio of 4:1 at 37° C. for 24 hours. […] After 48 hours of drug treatment, the cultured medium were collected for performing the analysis of SEAP activity. The cells were washed with 1×PBS once immediately, and the MTT assay was performed to compare the compounds with the relative toxicity or the influence to the proliferation and activity. Mitochondria is the place for cellular respiration, and there are many reductive reactions catalyzed by dehydrogenases. MTT is a water-soluble yellow compound, and the […] will be formed after reduction. This crystal can be dissolved in the organic solvent, and has high absorbance at the wavelength of 570 nm. The higher cellular activity or more cell numbers, the more generated crystal violets. Therefore, the cellular activity and cell number can be obtained by the MTT assay. MTT solution was prepared by dissolving MTT powder in PBS solution to achieve 5 mg/ml, filtrated and stored at 4° C. Lysis buffer contained 20% (w/v) of SDS in 50% of N,N-dimethylformamide (DMF, Riedel-deHaën). After the cells were incubated in the 96-well culture plate, the original medium was discarded, 100 μl of the fresh serum-free medium per well and 25 μl of MTT solution per well were added in respectively, and the cells were further incubated in the CO2 incubator at 37° C. for 4 hours. Then, 100 μl of lysis buffer per well was added in and incubated overnight in the CO2 incubator at 37° C. The absorbance at 570 nm was determined by the ELISA reader.

H1299 = assay: MTT assay in H1299 cells; assay type: cell-based; details: for cytotoxicity to H1299 cancer cells compared with mitoxantrone: MTT assay
Method in brief: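 H1299 cells, 2×10^3 per well, treated with drug 48 h. MTT (5 mg/ml stock) added for 4 h at 37° C, then SDS/DMF lysis overnight; absorbance at 570 nm gives viability, used alongside SEAP reporter readout to correct for cell number.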

hTERT expression = assay: SEAP assay in hTERT-BJ1-PTERT(3.4)-SEAP cells; assay type: cell-based; details: Homo sapiens, read-out: SEAP (Inhibition μM ± SD)
Experimental: A total of 2×10^3 hTERT-BJ1-PTERT(3.4)-SEAP cells were seeded in the 96-well cell culture plate, and incubated with DMEM (GIBCO®)/glucose mixture and Medium 199 (GIBCO®)/10% FBS/1 mM sodium pyruvate (GIBCO®)/4 mM L-glutamine (GIBCO®) mixture at a ratio of 4:1 at 37° C. for 24 hours. When the cells were attached in the bottom of the well, the seriously-diluted compounds with different concentrations ([…]) were treated with the cells for 48 hours, and the PTERT(3.4)-SEAP cells without drug treatment were being the control. After 48 hours of drug treatment, the cultured medium were collected for performing the analysis of SEAP activity. The cells were washed with 1×PBS once immediately, and the MTT assay was performed to compare the compounds with the relative toxicity or the influence to the proliferation and activity.
The cellular medium after the cellular incubation was transferred into the eppondorf tube, and the activity of endogeneous alkaline phosphatase was inactivated at 65° C. for 10 minutes. After centrification, the mixture was obtained by mixing 50 μl of the supernatant with the equal volume of the SEAP buffer. The mixture and the substrate (120 mM of p-nitrophenylphosphate) were preheated at 37° C. for 10 minutes respectively, and the mixture and the substrate were mixed at a ratio of 1:10 and reacted at 37° C. The absorbance of visible light at 405 nm was determined at the appropriate time intervals, and the enzymatic activity of SEAP was represented by the speed of the increasing absorbance at 405 nm.

telomerase = assay: Telomeric repeat amplification protocol (TRAP); assay type: biochemical; details: compounds at 100, 10 and 1 μM; gel electrophoresis
[1] = BJ1, compound concentration 1 μM
[2] = BJ1, compound concentration 10 μM
[3] = BJ1, compound concentration 100 μM

| SMILES | viability at 48 h, 1 µM (MTT assay in BJ1 cells) [%] | viability at 48 h, 10 µM (MTT assay in BJ1 cells) [%] | viability at 48 h, 100 µM (MTT assay in BJ1 cells) [%] | MTT assay (cellular cytotoxicity) (H1299; low concentration (1 μM)) [%] | melting point [°C] | activity at 1 µM (hTERT expression; [1]) [%] | activity at 10 µM (hTERT expression; [2]) [%] | activity at 100 µM (hTERT expression; [3]) [%] | telomerase inhibition effect in TRAP assay (telomerase) | cytotoxicity to H1299 cancer cells compared with mitoxantrone (H1299) | activity at 1 µM (hTERT expression) [%] | activity at 10 µM (hTERT expression) [%] | activity at 100 µM (hTERT expression) [%] |
| --- | --- | --- | --- | --- | --- | --- | --- | --- | --- | --- | --- | --- | --- |
| O=C(Cc1ccccc1)Nc1ccc2c(c1)C(=O)c1cc(NC(=O)Cc3ccccc3)ccc1C2=O [Compound 30, 2,7-Bis(phenylacetamido)anthraquinone] | 93 ± 2 | 80 ± 3 | 86 ± 4 | 107±7 | 224 | 85 ± 8 | 79 ± 6 | 40 ± 15 |  |  |  |  |  |
| CCNCC(=O)Nc1ccc2c(c1)C(=O)c1cc(NC(=O)CNCC)ccc1C2=O [Compound 10, 2,7-Bis[2-(ethylamino)acetamido]anthraquinone] | 72 ± 2 | 56 ± 2 | 37 ± 1 |  | 145 |  |  |  | telomerase inhibition effect | better than | 90 ± 5 | 41 ± 4 | 17 ± 21 |
| O=C(Nc1ccc2c(c1)C(=O)c1cc(NC(=O)c3ccccc3)ccc1C2=O)c1ccccc1 [Compound 29, 2,7-Bis(benzoamido)anthraquinone] | 92 ± 2 | 85 ± 2 | 97 ± 3 |  | 224 | 89 ± 2 | 72 ± 8 | 36 ± 13 | telomerase inhibition effect |  |  |  |  |
| CN(C)CCC(=O)Nc1ccc2c(c1)C(=O)c1cc(NC(=O)CCN(C)C)ccc1C2=O [Compound 20, 2,7-Bis[3-(dimethylamino)propionamido]anthraquinone] | 94 ± 7 | 30 ± 14 | 22 ± 13 |  | 196 |  |  |  | telomerase inhibition effect |  | 86 ± 2 | 61 ± 2 | 38 |
| O=C(CN1CCCC1)Nc1ccc2c(c1)C(=O)c1cc(NC(=O)CN3CCCC3)ccc1C2=O [Compound 6, 2,7-Bis[2-(pyrrolidino)acetamido]anthraquinone] | 99 ± 2 | 60 ± 2 | 39 ± 1 |  | 201 |  |  |  | telomerase inhibition effect |  |  |  |  |
| CC(=O)Nc1ccc2c(c1)C(=O)c1cc(NC(C)=O)ccc1C2=O [Compound 26, 2,7-Bis(acetamido)anthraquinone] | 106 ± 1 | 91 ± 2 | 91 ± 2 |  | 340 |  |  |  | telomerase inhibition effect |  | 123 ± 5 | 117 ± 3 | 117 ± 5 |
| CN(C)CC(=O)Nc1ccc2c(c1)C(=O)c1cc(NC(=O)CN(C)C)ccc1C2=O [Compound 8, 2,7-Bis[2-(dimethylamino)acetamido]anthraquinone] | 96 ± 3 | 45 ± 1 | 39 ± 1 |  |  |  |  |  | telomerase inhibition effect |  | 96 ± 1 | 44 ± 5 | 3 ± 13 |
| CCN(CC)CCC(=O)Nc1ccc2c(c1)C(=O)c1cc(NC(=O)CCN(CC)CC)ccc1C2=O [Compound 16, 2,7-Bis[3-(diethylamino)propionamido]anthraquinone] | 103 ± 2 | 55 ± 3 | 36 ± 1 |  |  | 84 ± 5 | 49 ± 3 | 37 ± 5 | telomerase inhibition effect |  |  |  |  |
| O=C1c2ccc(NC(=O)C3CC3)cc2C(=O)c2cc(NC(=O)C3CC3)ccc21 [Compound 32, 2,7-Bis(cyclopropanecarbonamido)anthraquinone] | 60 ± 6 | 44 ± 10 | 47 ± 2 |  | 352 |  |  |  |  | better than |  |  |  |
| O=C(CN1CCCCC1)Nc1ccc2c(c1)C(=O)c1cc(NC(=O)CN3CCCCC3)ccc1C2=O [Compound 7, 2,7-Bis[2-(piperidino)acetamido]anthraquinone] | 89 ± 1 | 78 ± 3 | 22 ± 2 |  | 243 | 118 ± 16 | 121 ± 3 | 103 ± 5 |  | better than |  |  |  |
| CCCC(=O)Nc1ccc2c(c1)C(=O)c1cc(NC(=O)CCC)ccc1C2=O [Compound 28, 2,7-Bis(butyramido)anthraquinone] | 84 ± 2 | 51 ± 8 | 50 ± 6 |  | 275 |  |  |  | telomerase inhibition effect |  |  |  |  |
| CC(C)NCC(=O)Nc1ccc2c(c1)C(=O)c1cc(NC(=O)CNC(C)C)ccc1C2=O [Compound 13, 2,7-Bis[2-(isopropylamino)acetamido]anthraquinone] | 89 ± 1 | 41 ± 2 | 39 ± 1 |  | 158 |  |  |  | telomerase inhibition effect |  | 79 ± 14 | 55 ± 19 | 45 ± 11 |
| CCCCNCCC(=O)Nc1ccc2c(c1)C(=O)c1cc(NC(=O)CCNCCCC)ccc1C2=O [Compound 17, 2,7-Bis[3-(butylamino)propionamido]anthraquinone] | 80 ± 3 | 70 ± 1 | 40 |  | 168 | 88 ± 34 | 95 ± 46 | 111 ± 25 |  |  |  |  |  |
